In paper PMC4970648, “Studies on 16α-Hydroxylation of Steroid Molecules and Regioselective Binding Mode in Homology-Modeled Cytochrome P450-2C11” (International Journal of Medicinal Chemistry, 2010):

These compounds were tested against [3H]PROG 16α-hydroxylating activity by male rat liver microsomes (CYP2C11) (Rattus norvegicus, UniProt P08683) (assay: Inhibition of [3H]progesterone 16α-hydroxylation by adult male rat liver microsomes). Conditions: 40% inhibition not reached at 10 μM of unlabeled steroid; male rat liver microsomes.
Experimental: Approximately 95-day-old male Wistar rats, castrated on the 70th day after birth, were used. The liver microsomes were prepared as previously described. The experiments were performed according to instrumental guidelines for the care and use of laboratory animals.
The metabolism by rat liver microsomes were examined, according to our previously described procedure. Briefly, the microsomal suspension (400–600 μg of protein/2.2 mL, total volume of the reaction mixture) was preincubated with [3H]PROG (20 nM) under the absence or presence of an unlabeled steroid (0.01–10 μM) at 36°C for 30 min. […] After the incubation, two identical samples were mixed and extracted with toluene. The toluene-extractable [3H]PROG metabolites (more than 90%) were isolated by various paper chromatographic systems and then identified by recrysallization method. Other miscellaneous procedures are described in our previous papers.

Sequence of [3H]PROG 16α-hydroxylating activity by male rat liver microsomes (CYP2C11) (P08683 whole entry): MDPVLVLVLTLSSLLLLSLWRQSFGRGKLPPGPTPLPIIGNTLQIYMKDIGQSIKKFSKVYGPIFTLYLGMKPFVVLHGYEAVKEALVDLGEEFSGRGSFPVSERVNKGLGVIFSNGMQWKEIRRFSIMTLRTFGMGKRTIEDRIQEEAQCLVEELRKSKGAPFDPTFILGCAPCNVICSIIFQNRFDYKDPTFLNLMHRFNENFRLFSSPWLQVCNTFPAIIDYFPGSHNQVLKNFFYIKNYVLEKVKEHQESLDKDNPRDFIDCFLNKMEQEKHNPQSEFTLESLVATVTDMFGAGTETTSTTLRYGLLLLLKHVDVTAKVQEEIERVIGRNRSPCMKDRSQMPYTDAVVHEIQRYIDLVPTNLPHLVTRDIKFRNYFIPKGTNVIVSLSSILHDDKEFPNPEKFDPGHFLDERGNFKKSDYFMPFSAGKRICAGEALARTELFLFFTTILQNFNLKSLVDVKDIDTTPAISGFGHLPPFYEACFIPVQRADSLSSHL

| Compound | [3H]PROG16α-hydroxylation (IC40), given as bound in μM |
| --- | --- |
| C[C@@]12CCC[C@H]1[C@@H]1CC[C@H]3CCCC[C@]3(C)[C@H]1CC2 [compound 46, 5α-Androstane] | >10 µM |
| CC(=O)[C@H]1[C@H](O)C[C@H]2[C@@H]3CCC4=CC(=O)CC[C@]4(C)[C@H]3CC[C@@]21C [compound 8, 16α-Hydroxyprogesterone] | >10 µM |
| C[C@]12C[C@H](O)[C@H]3[C@@H](CCC4=CC(=O)CC[C@@]43C)[C@@H]1CC[C@@H]2C(=O)CO [compound 16, Corticosterone] | >10 µM |
| C[C@]12CC[C@H]3[C@@H](CCC4=CC(=O)CC[C@@]43C)[C@@H]1CC[C@@H]2C(=O)CO [compound 14, 21-Hydroxyprogesterone] | >10 µM |
| CC(=O)OCC(=O)C1CCC2C3CCC4=CC(=O)CCC4(C)C3CCC12C (stereo not shown) [compound 15, 21-Acetoxyprogesterone] | >10 µM |
| 3β-Pregnan-3-one [compound 37] | >10 µM |
| C[C@@]12CCC[C@H]1[C@@H]1CC[C@@H]3CCCC[C@]3(C)[C@H]1CC2 [compound 47, 5β-Androstane] | >10 µM |
| C[C@]12CCCC[C@@H]1CC[C@@H]1[C@@H]2CC[C@]2(C)[C@@H](O)CC[C@@H]12 [compound 52, 5α-Androstan-17β-ol] | >10 µM |

Same assay, conditions: molar concentration of unlabeled steroid causing 40% inhibition; [3H]PROG 20 nM; unlabeled steroid 0.01–10 μM; male rat liver microsomes

| Compound | [3H]PROG16α-hydroxylation (IC40) |
| --- | --- |
| CC(=O)[C@H]1CC[C@H]2[C@@H]3CC[C@@H]4C[C@@H](O)CC[C@]4(C)[C@H]3CC[C@]12C [compound 34, 3β-Hydroxy-5 β -pregnan-20-one] | 170 nM |
| C[C@@]12CCC[C@H]1[C@@H]1CC[C@@H]3C[C@H](O)CC[C@]3(C)[C@H]1CC2 [compound 50, 5β-Androstan-3α-ol] | 510 nM |
| C[C@]12CCC(=O)C[C@H]1CC[C@@H]1[C@@H]2CC[C@]2(C)C(=O)CC[C@@H]12 [compound 55, 5β-Androstan-3,17-dione] | 480 nM |
| CC(=O)[C@H]1CC[C@H]2[C@@H]3CC[C@@H]4CC(=O)CC[C@]4(C)[C@H]3CC[C@]12C [compound 28, 5β-Pregnan-3,20-dione] | 395 nM |
| C[C@]12CC[C@H](O)C[C@@H]1CC[C@@H]1[C@@H]2CC[C@]2(C)[C@@H](O)CC[C@@H]12 [compound 65, 5α-Androstan-3β,17β-diol] | 1110 nM |
| C[C@]12CC[C@@H](O)C[C@H]1CC[C@@H]1[C@@H]2CC[C@]2(C)[C@@H](C(=O)O)CC[C@@H]12 [compound 67, 5β-Androstan-3α-ol-17β-carboxylic acid] | 360 nM |
| CC(=O)C1CCC2C3CC=C4CC(OS(=O)(=O)O)CCC4(C)C3CCC12C (stereo not shown) [compound 19, Pregnenolone-3-sulfate] | 195 nM |
| C[C@@]12CCC[C@H]1[C@@H]1CC[C@H]3C[C@@H](O)CC[C@]3(C)[C@H]1CC2 [compound 49, 5α-Androstan-3β-ol] | 650 nM |
| C[C@]12CCC(=O)C=C1CC[C@@H]1[C@@H]2CC[C@]2(C)C(=O)CC[C@@H]12 [compound 38, 4-Androsten-3,17-dione] | 1000 nM |
| C[C@]12CCC(=O)C[C@@H]1CC[C@@H]1[C@@H]2CC[C@]2(C)C(=O)CC[C@@H]12 [compound 54, 5α-Androstan-3,17-dione] | 650 nM |
| CC(=O)[C@H]1CC[C@H]2[C@@H]3CC=C4C[C@@H](O)CC[C@]4(C)[C@H]3CC[C@]12C [compound 17, Pregnenolone] | 142 nM |
